Assay results taken from PubChem BioAssay (NCI).
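Assay format: 96-well plates, 48-hour exposure. Abbreviation: GI50, concentration required for 50% inhibition of growth. TGI: total growth inhibition.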

How the values were obtained:
Assay in all cases: growth of human tumour cells (NCI), 48 h
[1] = test system: SF-295 CNS
[2] = test system: SK-MEL-2 melanoma
[3] = test system: OVCAR-3 ovarian
[4] = test system: RPMI-8226 leukemia
[5] = test system: SNB-75 CNS
[6] = test system: EKVX NSCLC
[7] = test system: MALME-3M melanoma
[8] = test system: SW-620 colon
[9] = test system: SK-OV-3 ovarian
[10] = test system: OVCAR-5 ovarian
[11] = test system: HCT-116 colon
[12] = test system: KM20L2 colon
[13] = test system: SR leukemia
[14] = test system: MOLT-4 leukemia
[15] = test system: UACC-62 melanoma
[16] = test system: IGROV1 ovarian
[17] = test system: OVCAR-4 ovarian
[18] = test system: SK-MEL-5 melanoma
[19] = test system: ACHN renal
[20] = test system: HCC-2998 colon
[21] = test system: CCRF-CEM leukemia
[22] = test system: SK-MEL-28 melanoma
[23] = test system: SNB-78 CNS
[24] = test system: UACC-257 melanoma
[25] = test system: OVCAR-8 ovarian
[26] = test system: HOP-18 NSCLC
[27] = test system: TK-10 renal
[28] = test system: KM12 colon
[29] = test system: M14 melanoma
[30] = test system: U251 CNS
[31] = test system: NCI-H23 lung
[32] = test system: HT29 colon
[33] = test system: HCT-15 colon
[34] = test system: NCI-H460 lung
[35] = test system: HL-60(TB) leukemia
[36] = test system: LOX IMVI melanoma
[37] = test system: 786-0 renal
[38] = test system: A549 NSCLC
[39] = test system: SF-539 CNS
[40] = test system: XF 498 CNS
[41] = test system: DLD-1 colon
[42] = test system: NCI-H522 lung
[43] = test system: SNB-19 CNS
[44] = test system: M19-MEL melanoma
[45] = test system: UO-31 renal
[46] = test system: RXF-631 renal
[47] = test system: DMS 114 small cell lung
[48] = test system: HOP-62 NSCLC
[49] = test system: COLO 205 colon
[50] = test system: K-562 leukemia
[51] = test system: LXFL 529 NSCLC
[52] = test system: SF-268 CNS
[53] = test system: CAKI-1 renal
[54] = test system: NCI-H226 lung

CC[O-].CC[O-].CN(C)c1ccc([O-])cc1.CN(C)c1ccc([O-])cc1.[Ti+4]
GI50 [1]: 48.7 µM | TGI [1]: > 100 µM | GI50 [2]: > 100 µM | TGI [2]: > 100 µM | GI50 [3]: 56.1 µM | TGI [3]: > 100 µM | GI50 [4]: 95.7 µM | TGI [4]: > 100 µM | GI50 [5]: > 100 µM | TGI [5]: > 100 µM | GI50 [6]: > 100 µM | TGI [6]: > 100 µM | GI50 [7]: 82.9 µM | TGI [7]: > 100 µM | GI50 [8]: 70.5 µM | TGI [8]: > 100 µM | GI50 [9]: > 100 µM | TGI [9]: > 100 µM | GI50 [10]: > 100 µM | TGI [10]: > 100 µM | GI50 [11]: 52.5 µM | TGI [11]: > 100 µM | GI50 [12]: 61.7 µM | TGI [12]: > 100 µM | GI50 [13]: 72.2 µM | TGI [13]: > 100 µM | GI50 [14]: 32.4 µM | TGI [14]: > 100 µM | GI50 [15]: > 100 µM | TGI [15]: > 100 µM | GI50 [16]: > 100 µM | TGI [16]: > 100 µM | GI50 [17]: > 100 µM | TGI [17]: > 100 µM | GI50 [18]: 99.8 µM | TGI [18]: > 100 µM | GI50 [19]: 40.9 µM | TGI [19]: > 100 µM | GI50 [20]: 53.6 µM | TGI [20]: > 100 µM | GI50 [21]: 36.4 µM | TGI [21]: > 100 µM | GI50 [22]: > 100 µM | TGI [22]: > 100 µM | GI50 [23]: > 100 µM | TGI [23]: > 100 µM | GI50 [24]: 28.7 µM | TGI [24]: > 100 µM | GI50 [25]: 36.8 µM | TGI [25]: > 100 µM | GI50 [26]: > 100 µM | TGI [26]: > 100 µM | GI50 [27]: > 100 µM | TGI [27]: > 100 µM | GI50 [28]: 29.3 µM | TGI [28]: > 100 µM | GI50 [29]: 98.4 µM | TGI [29]: > 100 µM | GI50 [30]: 39 µM | TGI [30]: > 100 µM | GI50 [31]: 70.6 µM | TGI [31]: > 100 µM | GI50 [32]: 21.3 µM | TGI [32]: 49.5 µM | GI50 [33]: 61.4 µM | TGI [33]: > 100 µM | GI50 [34]: 27.7 µM | TGI [34]: 75 µM | GI50 [35]: 46.4 µM | TGI [35]: > 100 µM | GI50 [36]: 38.6 µM | TGI [36]: > 100 µM | GI50 [37]: 32 µM | TGI [37]: > 100 µM | GI50 [38]: 54.4 µM | TGI [38]: > 100 µM | GI50 [39]: 30.8 µM | TGI [39]: > 100 µM | GI50 [40]: > 100 µM | TGI [40]: > 100 µM | GI50 [41]: 61.4 µM | TGI [41]: > 100 µM | GI50 [42]: 52.3 µM | TGI [42]: > 100 µM | GI50 [43]: > 100 µM | TGI [43]: > 100 µM | GI50 [44]: 39.3 µM | TGI [44]: > 100 µM | GI50 [45]: > 100 µM | TGI [45]: > 100 µM | GI50 [46]: 66.1 µM | TGI [46]: > 100 µM | GI50 [47]: 35 µM | TGI [47]: > 100 µM | GI50 [48]: > 100 µM | TGI [48]: > 100 µM | GI50 [49]: 58.4 µM | TGI [49]: > 100 µM | GI50 [50]: 29.1 µM | TGI [50]: > 100 µM | GI50 [51]: 68.2 µM | TGI [51]: > 100 µM | GI50 [52]: 36.4 µM | TGI [52]: > 100 µM | GI50 [53]: > 100 µM | TGI [53]: > 100 µM | GI50 [54]: > 100 µM | TGI [54]: > 100 µM
